# Where two headings read alike, the source gives them in different places.
# Columns and labels:
# [1] = target: T1, human adenylate kinase isoenzyme 1 (hAK1) (Homo sapiens, UniProt P00568); assay: Adenylate kinase activity assay and enzyme inhibition studies (RP-HPLC), hAK1; format: biochemical; conditions: for IC50: 37 °C
# T1 construct: thrombin recognition site (C); 6xHis-tag (C); made in house; host or cells: E. coli BL21-CodonPlus(DE3)-RIL, pET-3a(+)
# T1 sequence (P00568 1-194): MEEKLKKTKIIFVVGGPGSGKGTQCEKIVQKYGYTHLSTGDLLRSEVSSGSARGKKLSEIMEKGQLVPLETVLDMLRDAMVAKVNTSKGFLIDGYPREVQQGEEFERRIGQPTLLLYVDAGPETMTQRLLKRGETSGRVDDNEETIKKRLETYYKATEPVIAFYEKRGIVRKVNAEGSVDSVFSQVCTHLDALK
# Description: The reaction mixture for ATP synthesis contained 2 mM MgCl2, 1 mM ADP in 10 mM HEPES-NaOH, pH 7.5. The reaction mixture for ADP synthesis was composed of 2 mM MgCl2, 1 mM AMP and ATP each, in 10 mM HEPES-NaOH, pH 7.5. […] Studies on the statin inhibition mode were performed using varying concentrations of ADP as a substrate (from 0.2 to 1.0 mM) at different fixed concentrations of statin (0, 150, 300 and 450 µM). Adenylate kinase activity measurement was carried out in 50 μL of the reaction mixture for 5–10 min at 37 °C. The reaction was terminated by the addition of 50 μL of 1 M HClO4. After 5 min incubation on ice, samples were centrifuged at 15,000× g for 5 min at 4 °C. Then, 50 μL of the obtained supernatant was neutralized with 25 μL of 1 M KOH and delipidated by shaking with n-heptane (1:5 v/v). The samples were centrifuged as above, and subsequently, adenine nucleotide concentrations were analyzed by the RP-HPLC (reversed-phase high-performance liquid chromatography) method as previously described. Briefly, purine nucleotides were separated in isocratic conditions on the Chromolith Performance RP-18e column, 4.6 mm × 100 mm (Merck, Darmstadt, Germany) using the Shimadzu Prominence LC (Kyoto, Japan) equipped with pump (LC-20AD), autosampler (SIL-20AC), column thermostat (CTO-10AS) and photodiode array detector (SPD-M20A). HPLC system control, data acquisitions and processing were done with LabSolutions software. The samples were eluted using 0.1 M phosphate buffer, pH 7.0 containing 25 mM TBA, 5 mM EDTA and 3% methanol. ADP and ATP produced during the AK-catalyzed reaction were detected at λ = 260 nm based on the retention times of standard nucleotide solutions. The AK enzymatic activity was determined by quantifying the product concentration using correlation coefficients calculated from ADP and ATP calibration curves. One unit (U) of AK activity is defined as the amount of the enzyme that catalyzes the production of 1.0 μmole of ADP or ATP per minute at 37 °C, under the assay conditions specified above. The specific activity of AK was calculated as the number of units per milligram of protein. The Lineweaver–Burk plot was used to present enzyme-substrate reactions with and without statin, where the y-intercept is equivalent to the inverse of Vmax and the x-intercept represents −1/KM. The calculation of the IC50 values was performed using GraphPad Prism 8 Software (San Diego, CA, USA).
# [2] = target: T1, human adenylate kinase isoenzyme 1 (hAK1); assay: Fluorescence quenching of hAK1 intrinsic (tyrosine) fluorescence by statins, one-site binding model; conditions: read-out: Kd (dissociation constant)
# Description: The fluorescence emission spectra and plots of F versus [L] for the hAK1 quenching process at 20 and 25 °C are presented in Figure S2, while the emission spectra of hAK1, buffer (HEPES-NaOH) and five statins are shown in Figure S3. To analyze the quenching data upon the formation of an hAK1-statin complex, we used the following equation, which assumes a 1:1 stoichiomery:(1) PL/Pt=Pt+La+Kd−(Pt+La+Kd)^2−4PtLa/2Pt where Kd is the dissociation constant, [P]t is the concentration of protein, [L]a is the total concentration of the ligand, and [PL] it the concentration of protein-ligand complex.
# The obtained fluorescence data were fitted to the one-site binding model with an applied nonlinear least-squares regression using OriginPro software (Figure 3).
# Measurements were recorded in the range of 300–600 nm after excitation at λ = 289 nm at 20, 25 and 37 °C. Stock solutions of all statins were prepared in ethanol. The samples were prepared in 2 mL Eppendorf tubes and contained hAK1 at a concentration of 2 µM alone or with a statin at the following concentrations: 2, 4, 8, 16, 24, 32 and 40 µM, and 25 mM HEPES-NaOH (pH 7.5) was added to each tube, up to 2 mL. Then, the sample was transferred into the quartz cell and the spectrum was recorded. The emission spectra were measured three times. The fluorescence spectra of hAK1 in presence of statins were corrected for the inner filter effect using the following equation [63, 64]:(2) Fcor=Fobs∗ 10^AλEx+AλEm/2 where Fcor is the corrected fluorescence intensity and Fobs is the observed fluorescence intensity, AλEx is the absorption value at the excitation wavelength and AλEm is the absorption value at the emission wavelength. The fluorescence data were fitted by applying a nonlinear least-squares regression using OriginPro software Version 2016 (OriginLab Corporation, Northampton, MA, USA).
# serum AK = system: serum AK; design: method as in PMID 18576946; conditions: 0.5 mM AMP and 0.8 mM ATP as substrates; cited from earlier work
# [3] = system: endothelial cell-surface AK; design: method as in PMID 18576946; conditions: 0.5 mM AMP and 0.8 mM ATP as substrates; cited from earlier work
# [4] = target: T2, adenylate kinase from Geobacillus stearothermophilus (AKst) (Geobacillus stearothermophilus, UniProt P27142); assay: Adenylate kinase activity assay in the presence of statins, AKst (long type AK); format: biochemical; conditions: same drug concentration range as in hAK1 experiments; ADP or ATP and AMP as substrates, 1 mM each
# T2 construct: made in house; host or cells: E. coli BL21-CodonPlus(DE3)-RIL, pET-3a(+)
# Description: Next, we measured the enzymatic activity of AKst in the presence of RVS and SVS at the same drug concentration range as in the hAK1 experiments (Figure S4). […] This region has limited accessibility in AKst due to the presence of a markedly bigger LID domain as compared to hAK1, which may consequently prevent the binding of statins to AKst.
# The reaction mixture for ATP synthesis contained 2 mM MgCl2, 1 mM ADP in 10 mM HEPES-NaOH, pH 7.5. The reaction mixture for ADP synthesis was composed of 2 mM MgCl2, 1 mM AMP and ATP each, in 10 mM HEPES-NaOH, pH 7.5. […] Studies on the statin inhibition mode were performed using varying concentrations of ADP as a substrate (from 0.2 to 1.0 mM) at different fixed concentrations of statin (0, 150, 300 and 450 µM). […] The samples were centrifuged as above, and subsequently, adenine nucleotide concentrations were analyzed by the RP-HPLC (reversed-phase high-performance liquid chromatography) method as previously described. […] ADP and ATP produced during the AK-catalyzed reaction were detected at λ = 260 nm based on the retention times of standard nucleotide solutions. The AK enzymatic activity was determined by quantifying the product concentration using correlation coefficients calculated from ADP and ATP calibration curves. […] The specific activity of AK was calculated as the number of units per milligram of protein. […]
# [5] = 1 mM ADP, ATP synthesis direction, read-out: IC50 (ADP as a Substrate)
# [6] = 1 mM AMP and ATP each, ADP synthesis direction, read-out: IC50 (ATP + AMP as Substrates)
# [7] = 20 °C, 2 µM hAK1, 25 mM HEPES-NaOH pH 7.5
# [8] = 25 °C, 2 µM hAK1, 25 mM HEPES-NaOH pH 7.5
# [9] = 37 °C, 2 µM hAK1, 25 mM HEPES-NaOH pH 7.5
# T2 sequence (P27142 whole entry): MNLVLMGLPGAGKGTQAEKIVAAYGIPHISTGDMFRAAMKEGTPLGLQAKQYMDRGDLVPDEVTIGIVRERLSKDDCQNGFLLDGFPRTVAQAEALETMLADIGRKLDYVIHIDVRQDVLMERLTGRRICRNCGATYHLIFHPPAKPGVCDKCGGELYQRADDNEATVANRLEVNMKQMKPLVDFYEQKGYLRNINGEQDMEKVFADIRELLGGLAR
SMILES,"IC50 [1, 5] [µM]","IC50 [1, 6] [µM]","IC50 ([1]; ADP or ATP + AMP as substrates, read-out: IC50 values in both directions of the hAK1-catalyzed reaction) [µM]","Kd [2, 7] [µM]","Kd [2, 8] [µM]","Kd [2, 9] [µM]",IC50 (serum AK) [µM],IC50 [3] [µM],"hAK1 inhibition mode (Lineweaver-Burk plot) ([1]; ADP 0.2 to 1.0 mM, fixed statin concentrations 0, 150, 300 and 450 µM)",hAK1 inhibition ([1]; RVS at a concentration above 200 μM) [%],Effect on the AKst enzymatic activity [4],Kd ([2]; 37 °C) [µM]
"CC(C)c1c(C(=O)Nc2ccccc2)c(-c2ccccc2)c(-c2ccc(F)cc2)n1CC[C@@H](O)C[C@@H](O)CC(=O)O [AVS, Atorvastatin]",223 ± 34,237 ± 31,> 200,16 ± 2.1,27.2 ± 6.8,29.5 ± 3.7,,,,,,
"Nc1ncnc2c1ncn2[C@@H]1O[C@H](COP(=O)(O)OP(=O)(O)OP(=O)(O)OP(=O)(O)OP(=O)(O)OC[C@H]2O[C@@H](n3cnc4c(N)ncnc43)[C@H](O)[C@@H]2O)[C@@H](O)[C@H]1O [Ap5A, P^1,P^5-di(adenosine-5′)pentaphosphate]",,,,,,,6.3,6,,,,
"CC(C)n1c(/C=C/C(O)CC(O)CC(=O)O)c(-c2ccc(F)cc2)c2ccccc21 (stereo not drawn) [FVS, Fluvastatin]",126 ± 7,156 ± 11,,17.4 ± 2,23.1 ± 4,26.6 ± 5.5,,,,,,
"CC[C@H](C)C(=O)O[C@H]1C[C@H](O)C=C2C=C[C@H](C)[C@H](CC[C@@H](O)C[C@@H](O)CC(=O)O)[C@H]21 [PVS, Pravastatin]",95 ± 19,211 ± 33,,19.4 ± 4.1,26.4 ± 6.2,28.6 ± 8.2,,,,,,
"CC(C)c1nc(N(C)S(C)(=O)=O)nc(-c2ccc(F)cc2)c1/C=C/[C@@H](O)C[C@@H](O)CC(=O)O [RVS, Rosuvastatin]",166 ± 20,89 ± 15,,9.2 ± 1.5,16.8 ± 1.8,18.9 ± 3.2,,,noncompetitive,90,not found any inhibitory effect,
"CCC(C)(C)C(=O)O[C@H]1C[C@@H](C)C=C2C=C[C@H](C)[C@H](CC[C@@H]3C[C@@H](O)CC(=O)O3)[C@H]21 [SVS, Simvastatin]",5.5 ± 1.2,3.1 ± 0.5,,6.6 ± 1.2,10.9 ± 1.6,15.2 ± 2,,,,,not found any inhibitory effect,15.2 ± 2

# Reference: PMC8197361, “Assessing the Interactions of Statins with Human Adenylate Kinase Isoenzyme 1: Fluorescence and Enzyme Kinetic Studies” (International Journal of Molecular Sciences, 2021)
